Common to all, as to type: in vivo
In experiment [1] the test system is Pigweed, Palmer (palmer amaranth, palmer pigweed, Amaranthus palmeri). The experiment can be described thus: Test A1 preemergence, Pigweed, Palmer. The method, boiled down:
(§1)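 Plants grown in pots of loam/sand mix; preemergence = soil-directed spray on seeded pots, postemergence = spray at 1–2 leaves, height 2–10 cm; test chemicals formulated in non-phytotoxic solvent with surfactant.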

Experiment [2] deals with Ryegrass, Italian (Italian ryegrass, Lolium multiflorum). Kind of experiment: Test A1 preemergence, Ryegrass, Italian. The method, boiled down: as §1
In experiment [3] the test system is Pigweed, Palmer (palmer amaranth, palmer pigweed, Amaranthus palmeri). Kind of experiment: Test A1 postemergence, Pigweed, Palmer. The note with it: 0 to 100 scale (0 no effect, 100 complete control); for Pigweed, Palmer plant response rating: 31 g ai/ha, postemergence; for Plant response rating, Pigweed, Palmer: Postemergence, 125 g ai/ha, 10 days. The method, boiled down:
as §1

Experiment [4] has as its system Ryegrass, Italian (Italian ryegrass, Lolium multiflorum). Kind of experiment: Test A1 postemergence, Ryegrass, Italian. The note with it: 0 to 100 scale (0 no effect, 100 complete control); for Ryegrass, Italian plant response rating: 31 g ai/ha, postemergence; for Plant response rating, Ryegrass, Italian: Postemergence, 125 g ai/ha, 10 days. In short, it runs like this:
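Plants were grown in a loam soil/sand blend, with test chemicals formulated in a non-phytotoxic solvent mixture containing surfactant. Preemergence treatment (corn) was a directed soil spray at planting. Postemergence treatment was applied to plants 2 to 10 cm tall at the one- to two-leaf stage.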

Setting [5] is: 31 g ai/ha, 0 to 100 scale (0 no effect, 100 complete control).
[6] abbreviates: 125 g ai/ha, 0 to 100 scale, 0 no effect, 100 complete control.
[7] abbreviates: 125 g ai/ha, 0 to 100 scale (0 no effect, 100 complete control).

Take `Cc1cc(C)c(N(COC(=O)C(C)(C)C)S(=O)(=O)C(F)(F)F)cc1N1CCC2(CCC(C)CC2)C1=O` (stereo not shown) [Compound 401]: the entries for the “Plant response rating, Pigweed, Palmer” value in experiment [1] (setting [5]), in experiment [1] (setting [6]) and in experiment [3] were 0, 20 and 30, respectively. Further, the “Plant response rating, Ryegrass, Italian” value in experiment [2] (setting [5]) is 0; in experiment [2] (setting [6]), 30; in experiment [4] it was 0. The “Pigweed, Palmer plant response rating” value in experiment [3] is 0. In addition, the “Ryegrass, Italian plant response rating” value in experiment [4] is reported as 0.
As to `Cc1cc(C)c(N2CCC3(CCC(C)CC3)C2=O)cc1NS(=O)(=O)C(F)(F)F` (stereo not shown) [Compound 402], the “Plant response rating, Pigweed, Palmer” value is 60 in experiment [1] (setting [5]), 80 in experiment [1] (setting [6]) and 70 in experiment [3]. The “Plant response rating, Ryegrass, Italian” value in experiment [2] (setting [5]) was determined as 90; in experiment [2] (setting [6]), 100; in experiment [4] it was 0. In addition, the “Pigweed, Palmer plant response rating” value in experiment [3] was 20. In experiment [4], the “Ryegrass, Italian plant response rating” value came to 0.
Regarding `Cc1cc(C)c(N2Cc3cccc(C)c3C2=O)cc1NS(=O)(=O)Cl` [Compound 408], in experiment [1] (setting [7]), the “Plant response rating, Pigweed, Palmer” value turned out to be 60. Moreover, the “Plant response rating, Ryegrass, Italian” value in experiment [2] (setting [7]) came out at 100. Besides, in experiment [3], the “Pigweed, Palmer plant response rating” value came to 30 and the “Plant response rating, Pigweed, Palmer” value is 50. In addition, in experiment [4], the “Ryegrass, Italian plant response rating” value was found to be 70 and the “Plant response rating, Ryegrass, Italian” value turned out to be 80.
Turning to `CCOc1cccc2c1C(=O)N(c1cc(N(COC(=O)C(C)(C)C)S(=O)(=O)Cl)c(C)cc1C)C2` [Compound 414], the “Plant response rating, Pigweed, Palmer” value in experiment [1] (setting [7]) was 40. For the same compound, the “Plant response rating, Ryegrass, Italian” value in experiment [2] (setting [7]) was 30. Besides, in experiment [3], the “Pigweed, Palmer plant response rating” value amounted to 0 and the “Plant response rating, Pigweed, Palmer” value is listed as 10. For the same compound, in experiment [4], the “Ryegrass, Italian plant response rating” value is on record as 0 and the “Plant response rating, Ryegrass, Italian” value came out at 0.
On to `Cc1cc(C)c(N2Cc3cccc(Br)c3C2=O)cc1NS(=O)(=O)Cl` [Compound 415], for which the “Plant response rating, Pigweed, Palmer” value in experiment [1] (setting [7]) worked out at 60. In addition, the “Plant response rating, Ryegrass, Italian” value in experiment [2] (setting [7]) amounted to 70. Also, in experiment [3], the “Pigweed, Palmer plant response rating” value came to 0 and the “Plant response rating, Pigweed, Palmer” value came out at 20. Besides, in experiment [4], the “Ryegrass, Italian plant response rating” value is 0 and the “Plant response rating, Ryegrass, Italian” value worked out at 60.

Source of the values: US20230278972A1, “SUBSTITUTED HALOALKYL SULFONANILIDE HERBICIDES” (FMC Corporation, priority 2020, published 2023).
